The values that follow come from patent US12319695B2, “Sulfonamide derivative with fused pyrimidine skeleton, having epidermal growth factor receptor mutation inhibitory effect” (HANMI PHARM. CO., LTD., priority 2018, dated 2025).

Entries after “also recorded” stand apart in the source; their conditions may differ. Where two headings read alike, the source gives them in different places.

The test relates to Ba/F3 EGFR del19/T790M/C797S cells. Briefly: Ba/F3 EGFR del19/T790M/C797S cell growth inhibition test (CellTiter-Glo, 72 hours).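 On all read-outs here: compounds tested in tenfold steps from 10 µM down to 0.1 nM, with luminescence read on a microplate reader.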 The note with it: for GI50: read-out: Ba/F3 EGFR del19/T790M/C797S cells, GI50. In kind it is cell-based. Background: Cellular ATP, detected with luciferase, serves as a proxy for viable cell number.
Setting [1] is: Ba/F3 cell line overexpressing EGFR del19/T790M/C797S, 72 hours, CellTiter-Glo.

Procedure: Specifically, the cell line stored in a liquid nitrogen tank was taken out, rapidly dissolved at 37° C., and thereafter centrifuged to remove the cryopreservation medium. The recovered cell pellets were well mixed in a culture medium, put into a culture flask, and passaged under conditions of 37° C. and 5% carbon dioxide to stabilize the cells to the logarithmic growth phase. Thereafter, cells were taken from the flask, centrifuged to remove the culture medium, washed with Dulbecco's phosphate buffered saline (DPBS), and then centrifuged again to remove DPBS, and then diluted with a culture medium to have 1×10^5 cells/ml. The diluted cells were dispensed into a 96-well plate at 100 μl per well. […] The DMSO solution containing each compound was diluted with a culture medium to a concentration of 30 μM, and then tenfold serial dilution was used to prepare a solution diluted upto 0.3 nM (in order to reach a final DMSO concentration of 1% or less).
50 μl of a test solution of each compound was added each time to the 96-well plate in which the cells were dispensed, thus reaching a final concentration of 10 μM to 0.1 nM in 150 μl per well. The cells treated with the test solution were cultured under conditions of 37° C. and 5% carbon dioxide for 72 hours. After the 96-well plate in which the cells were cultured was acclimated to room temperature for 30 minutes, CellTiter-Glo® Luminescent Cell Assay Reagent (CTG, Promega) was dispensed at 50 μl per well. After stabilizing luminescence signals for 10 minutes, the luminescence intensity was measured with a microplate reader.
The GI50 value of each compound was calculated using nonlinear regression of GraphPad Prism; log[inhibitor] vs. normalized response analysis.

In the case of `CN1CCN(C2CCN(c3ccc(Nc4nc(Nc5ccccc5N(C)S(C)(=O)=O)c5c(F)c[nH]c5n4)cc3F)CC2)CC1` [Example 64, N-(2-((5-fluoro-2-((3-fluoro-4-(4-(4-methylpiperazin-1-yl)piperidin-1-yl)phenyl)amino)-7H-pyrrolo[2,3-d]pyrimidine-4-yl)amino)phenyl)-N-methylmethanesulfonamide], the GI50 under setting [1] is 28 nM.

Take `CCN(c1ccccc1Nc1nc(Nc2ccc(N3CCN(C)CC3)c(F)c2)nc2[nH]ccc12)S(C)(=O)=O` [Example 43, N-ethyl-N-(2-((2-((3-fluoro-4-(4-methylpiperazin-1-yl)phenyl)amino)-7H-pyrrolo[2,3-d]pyrimidine-4-yl)amino)phenyl)methanesulfonamide]: under setting [1], the GI50 was found to be 37 nM.

On to `CN1CCC2(CC1)CN(c1ccc(Nc3nc(Nc4ccccc4N(C)S(C)(=O)=O)c4cc[nH]c4n3)cc1F)C2` [Example 37, N-(2-((2-((3-fluoro-4-(7-methyl-2,7-diazaspiro[3.5]nonan-2-yl)phenyl)amino)-7H-pyrrolo[2,3-d]pyrimidine-4-yl)amino)phenyl)-N-methylmethanesulfonamide], for which the GI50 under setting [1] is 95 nM.

Turning to `CN1CCN(c2ccc(Nc3nc(Nc4ccccc4N(C)S(C)(=O)=O)c4cc[nH]c4n3)c(F)c2F)CC1` [Example 27, N-(2-((2-((2,3-difluoro-4-(4-methylpiperazin-1-yl)phenyl)amino)-7H-pyrrolo[2,3-d]pyrimidine-4-yl)amino)phenyl)-N-methylmethanesulfonamide], under setting [1], the GI50 worked out at 6 nM.

Turning to `CCN1CCN(c2ccc(Nc3nc(Nc4ccccc4N(C)S(=O)(=O)CC)c4cc[nH]c4n3)cc2F)CC1` [Example 51, N-(2-((2-((4-(4-ethylpiperazin-1-yl)-3-fluorophenyl)amino)-7H-pyrrolo[2,3-d]pyrimidine-4-yl)amino)phenyl)-N-methylethanesulfonamide], the GI50 under setting [1] is 25 nM.

Consider `CCN1CCC2(CC1)CCN(c1ccc(Nc3nc(Nc4ccccc4N(C)S(C)(=O)=O)c4cc[nH]c4n3)cc1F)CC2` [Example 32, N-(2-((2-((4-(9-ethyl-3,9-diazaspiro[5.5]undecan-3-yl)-3-fluorophenyl)amino)-7H-pyrrolo[2,3-d]pyrimidine-4-yl)amino)phenyl)-N-methanesulfonamide], for which the GI50 under setting [1] is 11 nM.

In the case of `CN1CCN(c2c(F)cc(Nc3nc(Nc4ccccc4N(C)S(C)(=O)=O)c4cc[nH]c4n3)cc2F)CC1` [Example 25, N-(2-((2-((3,5-difluoro-4-(4-methylpiperazin-1-yl)phenyl)amino)-7H-pyrrolo[2,3-d]pyrimidine-4-yl)amino)phenyl)-N-methylmethanesulfonamide], under setting [1], the GI50 came to 22 nM.

`CCS(=O)(=O)N(C)c1ccccc1Nc1nc(Nc2ccc(N3CCN(C)CC3)c(F)c2)nc2[nH]ccc12` [Example 46, N-(2-((2-((3-fluoro-4-(4-methylpiperazin-1-yl)phenyl)amino)-7H-pyrrolo[2,3-d]pyrimidine-4-yl)amino)phenyl)-N-methylethanesulfonamide]: the GI50 under setting [1] turned out to be 16 nM.

`C=CC(=O)Nc1cc(Nc2nccc(-c3cn(C)c4ccccc34)n2)c(OC)cc1N(C)CCN(C)C` [Osimertinib, reference compound]: the “proliferation inhibitory effect in Ba/F3 cell line (in words)” value is listed as “did not show proliferation inhibitory activity; also recorded: extremely insignificant inhibitory effect” and the GI50 was 1120 nM. The GI50 (Ba/F3 EGFR-Del19/T790M/C797S, 72 h) is above 1000 nM.

With `CN(c1ccccc1Nc1nc(Nc2ccc(N3CCC(N4CCOCC4)CC3)c(F)c2)nc2[nH]ccc12)S(C)(=O)=O` [Example 18, N-(2-((2-((3-fluoro-4-(4-morpholinopiperidin-1-yl)phenyl)amino)-7H-pyrrolo[2,3-d]pyrimidine-4-yl)amino)phenyl)-N-methylmethanesulfonamide], the GI50 under setting [1] is 73 nM.

In the case of `CN1CCC2(C1)CN(c1ccc(Nc3nc(Nc4ccccc4N(C)S(C)(=O)=O)c4cc[nH]c4n3)cc1F)C2` [Example 38, N-(2-((2-((3-fluoro-4-(6-methyl-2,6-diazaspiro[3.4]octan-2-yl)phenyl)amino)-7H-pyrrolo[2,3-d]pyrimidine-4-yl)amino)phenyl)-N-methylmethanesulfonamide], the GI50 under setting [1] worked out at 25 nM.

With `CCN1CCN(c2ccc(Nc3nc(Nc4ccccc4N(C)S(C)(=O)=O)c4c(F)c[nH]c4n3)cc2F)CC1` [Example 63, N-(2-((2-((4-(4-ethylpiperazin-1-yl)-3-fluorophenyl)amino)-5-fluoro-7H-pyrrolo[2,3-d]pyrimidine-4-yl)amino)phenyl)-N-methylmethanesulfonamide], the GI50 under setting [1] is 64 nM.

Turning to `Cc1cc(Nc2nc(Nc3ccccc3N(C)S(C)(=O)=O)c3cc[nH]c3n2)ccc1N1CCN(C)CC1` [Example 5, N-methyl-N-(2-((2-((3-methyl-4-(4-methylpiperazin-1-yl)phenyl)amino)-7H-pyrrolo[2,3-d]pyrimidine-4-yl)amino)phenyl)methanesulfonamide], the GI50 under setting [1] came out at 31 nM.

As to `CN1CCN(c2ccc(Nc3nc(Nc4ccccc4N(C)S(C)(=O)=O)c4cc[nH]c4n3)cn2)CC1` [Example 30, N-methyl-N-(2-((2-((6-(4-methylpiperazin-1-yl)pyridin-3-yl)amino)-7H-pyrrolo[2,3-d]pyrimidine-4-yl)amino)phenyl)methanesulfonamide], under setting [1], the GI50 was determined as 9.4 nM.

Regarding `CN(c1ccccc1Nc1nc(Nc2ccc(N3CCC4(CCOCC4)CC3)c(F)c2)nc2[nH]ccc12)S(C)(=O)=O` [Example 39, N-(2-((2-((3-fluoro-4-(3-oxa-9-diazaspiro[5.5]undecan-9-yl)phenyl)amino)-7H-pyrrolo[2,3-d]pyrimidine-4-yl)amino)phenyl)-N-methylmethanesulfonamide], the GI50 under setting [1] was determined as 67 nM.

Turning to `CN1C[C@@H]2CN(c3ccc(Nc4nc(Nc5ccccc5N(C)S(C)(=O)=O)c5cc[nH]c5n4)cc3F)C[C@@H]2C1` [Example 41, N-(2-((2-((3-fluoro-4-((3aR,6aS)-5-methylhexahydropyrrolo[3,4-c]pyrrole-2(1H)-yl)phenyl)amino)-7H-pyrrolo[2,3-d]pyrimidine-4-yl)amino)phenyl)-N-methylmethanesulfonamide], the GI50 under setting [1] was 141 nM.

For `CN(c1ccccc1Nc1nc(Nc2ccc(N3CCNCC3)c(F)c2)nc2[nH]ccc12)S(C)(=O)=O` [Example 23, N-(2-((2-((3-fluoro-4-(piperazin-1-yl)phenyl)amino)-7H-pyrrolo[2,3-d]pyrimidine-4-yl)amino)phenyl)-N-methylmethanesulfonamide], under setting [1], the GI50 is 76 nM.

Turning to `CN1CCC2(CC1)CCN(c1ccc(Nc3nc(Nc4ccccc4N(C)S(C)(=O)=O)c4cc[nH]c4n3)cc1F)C2` [Example 35, N-(2-((2-((3-fluoro-4-(8-methyl-2,8-diazaspiro[4.5]decan-2-yl)phenyl)amino)-7H-pyrrolo[2,3-d]pyrimidine-4-yl)amino)phenyl)-N-methylmethanesulfonamide], the GI50 under setting [1] came out at 185 nM.

In the case of `CN1CCN(c2ccc(Nc3nc(Nc4ccccc4N(C)S(C)(=O)=O)c4cc[nH]c4n3)cc2Cl)CC1` [Example 6, N-(2-((2-((3-chloro-4-(4-methylpiperazin-1-yl)phenyl)amino)-7H-pyrrolo[2,3-d]pyrimidine-4-yl)amino)phenyl)-N-methylmethanesulfonamide], the GI50 under setting [1] worked out at 54 nM.

As to `CN1CCC2(CC1)CCN(c1ccc(Nc3nc(Nc4ccccc4N(C)S(C)(=O)=O)c4cc[nH]c4n3)cc1F)CC2` [Example 31, N-(2-((2-((3-fluoro-4-(9-methyl-3,9-diazaspiro[5.5]undecan-3-yl)phenyl)amino)-7H-pyrrolo[2,3-d]pyrimidine-4-yl)amino)phenyl)-N-methylmethanesulfonamide], the GI50 under setting [1] was determined as 10 nM.

In the case of `Cc1cc(N2CCN(C)CC2)ccc1Nc1nc(Nc2ccccc2N(C)S(C)(=O)=O)c2cc[nH]c2n1` [Example 2, N-methyl-N-(2-((2-((2-methyl-4-(4-methylpiperazin-1-yl)phenyl)amino)-7H-pyrrolo[2,3-d]pyrimidine-4-yl)amino)phenyl)methanesulfonamide], the GI50 under setting [1] turned out to be 522 nM.

On to `CN(c1ccccc1Nc1nc(Nc2ccc(N3CCC4(CC3)COC4)c(F)c2)nc2[nH]ccc12)S(C)(=O)=O` [Example 40, N-(2-((2-((3-fluoro-4-(2-oxa-7-azaspiro[3.5]nonan-7-yl)phenyl)amino)-7H-pyrrolo[2,3-d]pyrimidine-4-yl)amino)phenyl)-N-methylmethanesulfonamide], for which the GI50 under setting [1] came to 65 nM.
